Assay results from patent publication US7148352B2, “Method of inhibiting neurotrophin-receptor binding” (Queen's University at Kingston, priority 1999, dated 2006).
Values joined by “and” are separate entries in the source; they are usually repeats but may differ in a detail not shown here. Equal entries are not always repeated.

What was measured:
Set-up in all cases: species or system rat
[1] = molecular target: T1, TrkA and p75^NTR (PC12 cells) (Mus musculus, UniProt P01139); test: 125I-NGF receptor binding to PC12 cells in the presence of competitor; conditions: compound 50 μM; 125I-NGF 1 nM; 2 h at 4° C.; average of three values
T1 construct: PC12 cells (rat pheochromocytoma cells expressing TrkA and p75^NTR; obtained from ATCC); host or cells: PC12 rat pheochromocytoma cells (intact, in suspension)
Experimental: (§1) The radio-iodination and receptor binding of NGF (Sutter et al., 1979) was performed with modifications (Ross et al., 1997) as follows: Evaluation of the ability of NCP compounds to inhibit TrkA and p75^NTR binding was determined by the binding of ^125I-NGF to PC12 cells (rat pheochromocytoma cells expressing TrkA and p75^NTR; obtained from ATCC) and PC12^nnr5 (rat pheochromocytoma cells expressing p75^NTR only; obtained from Dr. L. Greene, Columbia University, NY). The p75^NTR is in a low affinity state and a high affinity state, respectively, in these cell types (Ross et al., 1998). PC12 and PC12^nnr5 cells were grown in RPMI (Sigma) with 10% heat inactivated donor horse serum and 5% fetal calf serum. Cells were harvested by replacing the medium with calcium, magnesium-free balanced salt solution (Gey's solution) and incubating at 37° C. for 15 minutes. Cells were pelleted by centrifugation and suspended in HKR buffer (10 mM Hepes [pH 7.35] containing 125 mM NaCl, 4.8 mM KCl, 1.3 mM CaCl2, 1.2 mM MgSO4, 1.2 mM KH2PO4, 1 g/L glucose and 1 g/L BSA) at a cell concentration of 2×10^6/mL and kept at 4° C. Triplicate tubes were set up for total binding, non-specific binding and binding in the presence of candidate competitor molecule (i.e., a tube for each data point). Each tube contained ^125I-NGF (at 1 nM), 400,000 cells (for a final cell concentration of 10^6/mL) and NGF (50 nM, to define non-specific binding), as required. The tubes were incubated for 2 h at 4° C. and specific binding evaluated by measuring specifically bound DPM (Ross et al., 1997). Data were analysed and the results expressed as receptor binding observed in the presence of competitor (e.g. NCP compounds) as a percentage of receptor binding in the absence of a competitor.

[2] = test system: T2, TrkA and p75^NTR (PC12 cells); test: as above; conditions: compound 50 μM; 125I-NGF 1 nM; 2 h at 4° C.; receptor binding as percentage of binding in absence of competitor
T2 construct: PC12 cells (rat pheochromocytoma cells expressing TrkA and p75^NTR; obtained from ATCC); host or cells: PC12 rat pheochromocytoma cells (intact, in suspension)
Experimental: as §1

[3] = test system: p75^NTR (PC12^nnr5 cells, expressing p75^NTR only); test: 125I-NGF receptor binding to PC12^nnr5 cells in the presence of competitor; conditions: compound 50 μM, 125I-NGF 1 nM, 2 h at 4° C.; for nnr5 % of Max, Avg: average of three values; for nnr5 % of Max (individual determinations): receptor binding as percentage of binding in absence of competitor
Experimental: as §1

T1 sequence (P01139 122-241): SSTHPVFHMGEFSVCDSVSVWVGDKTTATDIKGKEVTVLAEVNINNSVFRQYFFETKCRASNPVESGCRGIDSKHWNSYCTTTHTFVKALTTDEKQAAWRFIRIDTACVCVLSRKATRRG
T2 sequence (P01139 122-241): as above

Row | Structure (SMILES) | PC12 % of Max, Avg [1] | PC12 % of Max (individual determinations) [2] | nnr5 % of Max, Avg [3] | nnr5 % of Max (individual determinations) [3]
1 | Nc1ccc2c(c1)C(=O)N(c1cccc(C(=O)O)c1)C2=O [Compound 166, 4-amino-N-(m-carboxyphenyl)phthalimide] | = 57 % of Max | 43 % of Max and 58 % of Max and 71 % of Max | = 58 % of Max | 55 % of Max and 64 % of Max and 56 % of Max
2 | O=C(O)CCCCCN1C(=O)c2cccc([N+](=O)[O-])c2C1=O [Compound 124, 3-nitro-N-(5-carboxypentyl)phthalimide] | = 92 % of Max | 117 % of Max and 71 % of Max and 89 % of Max | = 153 % of Max | 166 % of Max and 182 % of Max and 110 % of Max
3 | O=C(O)c1ccc(N2C(=O)c3ccc(C(=O)O)cc3C2=O)cc1 [Compound 105, 4-carboxy-N-(p-carboxyphenyl)phthalimide] | = 36 % of Max | 29 % of Max and 38 % of Max and 40 % of Max | = 34 % of Max | 31 % of Max and 17 % of Max and 55 % of Max
4 | O=C(O)c1cccc(N2C(=O)c3cccc([N+](=O)[O-])c3C2=O)c1 [Compound 126, 3-nitro-N-(m-carboxyphenyl)phthalimide] | = 77 % of Max | 90 % of Max and 69 % of Max and 72 % of Max | = 52 % of Max | 34 % of Max and 54 % of Max and 69 % of Max
5 | O=C(O)CCN1C(=O)c2ccc(C(=O)O)cc2C1=O [Compound 101, 4-carboxy-N-(2-carboxyethyl)phthalimide] | = 107 % of Max | 89 % of Max and 94 % of Max and 139 % of Max | = 81 % of Max | 89 % of Max and 91 % of Max and 64 % of Max
6 | O=C(O)c1cccc(N2C(=O)c3ccc(C(=O)O)cc3C2=O)c1 [Compound 106, 4-carboxy-N-(m-carboxyphenyl)phthalimide] | = 44 % of Max | 40 % of Max (2×) and 52 % of Max | = 26 % of Max | 37 % of Max and 16 % of Max and 24 % of Max
7 | O=C(O)c1ccc2c(c1)C(=O)N(c1ccccc1C(=O)O)C2=O [Compound 107, 4-carboxy-N-(o-carboxyphenyl)phthalimide] | = 100 % of Max | 111 % of Max and 86 % of Max and 103 % of Max | = 85 % of Max | 58 % of Max and 113 % of Max and 83 % of Max
8 | O=C(O)c1ccc(N2C(=O)c3cccc4c([N+](=O)[O-])ccc(c34)C2=O)cc1 [Compound 225, 4-nitro-N-(p-carboxyphenyl)-1,8-naphthalimide] | = 66 % of Max | 69 % of Max and 60 % of Max and 68 % of Max | = 56 % of Max | 49 % of Max and 50 % of Max and 68 % of Max
9 | O=C(O)c1cccc(N2C(=O)c3cccc4cc([N+](=O)[O-])cc(c34)C2=O)c1 [Compound 206, 3-nitro-N-(m-carboxyphenyl)-1,8-naphthalimide] | = 30 % of Max | 25 % of Max and 29 % of Max and 35 % of Max | = 23 % of Max | 20 % of Max and 17 % of Max and 33 % of Max
10 | O=C(O)CCCCN1C(=O)c2cccc([N+](=O)[O-])c2C1=O [Compound 123, 3-nitro-N-(4-carboxybutyl)phthalimide] | = 97 % of Max | 118 % of Max and 75 % of Max and 98 % of Max | = 150 % of Max | 172 % of Max and 161 % of Max and 117 % of Max
11 | O=C(O)c1ccc2c(c1)C(=O)N(c1ccccc1)C2=O [Compound 109, 4-carboxy-N-phenylphthalimide] | = 56 % of Max | 50 % of Max and 60 % of Max and 57 % of Max | = 73 % of Max | 70 % of Max and 74 % of Max and 75 % of Max
12 | O=C(O)c1ccccc1N1C(=O)c2cccc3cc([N+](=O)[O-])cc(c23)C1=O [Compound 207, 3-nitro-N-(o-carboxyphenyl)-1,8-naphthalimide] | = 54 % of Max | 60 % of Max and 34 % of Max and 69 % of Max | = 58 % of Max | 64 % of Max and 52 % of Max and 59 % of Max
13 | O=C(O)CN1C(=O)c2cccc([N+](=O)[O-])c2C1=O [Compound 120, 3-nitro-N-(1-carboxymethyl)phthalimide] | = 109 % of Max | 133 % of Max and 92 % of Max and 103 % of Max | = 183 % of Max | 218 % of Max and 200 % of Max and 130 % of Max
14 | O=C(O)c1ccc(CN2C(=O)c3ccc(C(=O)O)cc3C2=O)cc1 [Compound 108, 4-carboxy-N-(p-carboxyphenylmethyl)phthalimide] | = 73 % of Max | 90 % of Max and 55 % of Max and 75 % of Max | = 93 % of Max | 135 % of Max and 77 % of Max and 66 % of Max
15 | O=C(O)c1ccccc1N1C(=O)c2cccc([N+](=O)[O-])c2C1=O [Compound 127, 3-nitro-N-(o-carboxyphenyl)phthalimide] | = 118 % of Max | 140 % of Max and 101 % of Max and 114 % of Max | = 112 % of Max | 136 % of Max and 129 % of Max and 71 % of Max
16 | Nc1ccc2c(c1)C(=O)N(c1ccc(C(=O)O)cc1)C2=O [Compound 165, 4-amino-N-(p-carboxyphenyl)phthalimide] | = 49 % of Max | 54 % of Max and 53 % of Max and 40 % of Max | = 61 % of Max | 61 % of Max and 53 % of Max and 68 % of Max
17 | O=C(O)c1cccc(N2C(=O)c3cccc4c([N+](=O)[O-])ccc(c34)C2=O)c1 [Compound 226, 4-nitro-N-(m-carboxyphenyl)-1,8-naphthalimide] | = 30 % of Max | 27 % of Max and 29 % of Max and 35 % of Max | = 12 % of Max | 13 % of Max (2×) and 10 % of Max
18 | O=C(O)CCCN1C(=O)c2ccc([N+](=O)[O-])cc2C1=O [Compound 142, 4-nitro-N-(3-carboxypropyl)phthalimide] | = 66 % of Max | 55 % of Max and 77 % of Max and 67 % of Max | = 51 % of Max | 52 % of Max and 51 % of Max (2×)
19 | O=C(O)CCN1C(=O)c2ccc([N+](=O)[O-])cc2C1=O [Compound 141, 4-nitro-N-(2-carboxyethyl)phthalimide] | = 90 % of Max | 74 % of Max and 108 % of Max and 87 % of Max | = 96 % of Max | 98 % of Max and 114 % of Max and 77 % of Max
20 | O=C(O)CN1C(=O)c2ccc([N+](=O)[O-])cc2C1=O [Compound 140, 4-nitro-N-(1-carboxymethyl)phthalimide] | = 111 % of Max | 100 % of Max and 126 % of Max and 108 % of Max | = 99 % of Max | 89 % of Max and 108 % of Max and 100 % of Max
21 | O=C(O)c1ccc(N2C(=O)c3cccc4cc([N+](=O)[O-])cc(c34)C2=O)cc1 [Compound 205, 3-nitro-N-(p-carboxyphenyl)-1,8-naphthalimide] | = 17 % of Max | 16 % of Max and 19 % of Max and 15 % of Max | = 9 % of Max | 0 % of Max and 11 % of Max and 15 % of Max
